Earlier results in patent US20040013710A1, “Hydrolyzable tannin extracts from plants effective at inhibiting bacterial adherence to surfaces” (priority 2003, published 2004).

Tested on: type 1 E. coli

O=C(CO)[C@@H](O)[C@H](O)[C@H](O)CO [fructose]
inhibition of Type I adherence: inhibited
